{
  "source": "patent US12257342B2",
  "about": "“Phenylephrine hydrochloride ready-to-use solution” (Hikma Pharmaceuticals USA Inc., priority 2015, dated 2025)",
  "origin": "cited, not measured here",
  "tested_on": "α−1 adrenergic receptor",
  "details": "following an intravenous bolus administration",
  "data": [
    {"smiles": "CNC[C@H](O)c1cccc(O)c1.Cl", "note": "[Phenylephrine hydrochloride, (−)-m-Hydroxy-α-[(methylamino)methyl]benzyl alcohol hydrochloride]", "values": [
      {"measurement": "onset of blood pressure increase", "value": "rapid"},
      {"measurement": "persistence of the blood pressure effect", "value": "up to 20 minutes"}
    ]}
  ]
}
